Data from US8637511B2, “Aminopyrimidines useful as kinase inhibitors” (Vertex Pharmaceuticals Incorporated, priority 2005, dated 2014).
Values joined by “and” are separate entries in the source; they are usually repeats but may differ in a detail not shown here. Equal entries are not always repeated. Where two headings read alike, the source gives them in different places.

Columns and labels:
[1] = molecular target: T1, Aurora-2 (Aurora A) (Homo sapiens, UniProt O14965); experiment: Aurora-2 (Aurora A) inhibition assay, coupled enzyme; format: biochemical
T1 sequence (O14965 1-403): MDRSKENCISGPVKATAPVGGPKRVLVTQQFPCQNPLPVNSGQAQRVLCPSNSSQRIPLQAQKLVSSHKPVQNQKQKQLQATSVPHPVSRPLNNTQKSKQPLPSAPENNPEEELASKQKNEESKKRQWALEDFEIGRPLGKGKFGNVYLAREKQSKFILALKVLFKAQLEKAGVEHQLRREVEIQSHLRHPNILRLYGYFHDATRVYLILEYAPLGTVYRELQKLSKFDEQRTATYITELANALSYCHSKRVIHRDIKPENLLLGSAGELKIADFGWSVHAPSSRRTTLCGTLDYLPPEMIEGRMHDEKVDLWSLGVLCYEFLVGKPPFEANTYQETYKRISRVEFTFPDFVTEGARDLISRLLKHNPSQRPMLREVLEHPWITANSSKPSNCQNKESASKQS
Protocol: Assays were carried out in a mixture of 100 mM Hepes (pH7.5), 10 mM MgCl2, 1 mM DTT, 25 mM NaCl, 2.5 mM phosphoenolpyruvate, 300 μM NADH, 30 μg/ml pyruvate kinase and 10 μg/ml lactate dehydrogenase. […] Assays were carried out at 30° C. and in the presence of 40 nM Aurora-2.
The plate was preincubated for 10 minutes at 30° C. and the reaction initiated by addition of 10 μl of Aurora-2. Initial reaction rates were determined with a Molecular Devices SpectraMax Plus plate reader over a 10 minute time course. IC50 and Ki data were calculated from non-linear regression analysis using the Prism software package (GraphPad Prism version 3.0cx for Macintosh, GraphPad Software, San Diego Calif., USA).

[2] = molecular target: Aurora-1 (Aurora B) (Homo sapiens, UniProt Q96GD4); experiment: Aurora-1 (Aurora B) inhibition assay (radiometric); format: biochemical; conditions: read-out: Aurora B kinase Ki value
Protocol: An assay buffer solution was prepared which consisted of 25 mM HEPES (pH 7.5), 10 mM MgCl2, 0.1% BSA and 10% glycerol. […] To 22 μL of the Aurora-B solution, in a 96-well plate, was added 2 μl of a compound stock solution in DMSO and the mixture allowed to equilibrate for 10 minutes at 25° C. The enzyme reaction was initiated by the addition of 16 μl stock [γ-^33P]-ATP solution (˜20 nCi/μL) prepared in assay buffer, to a final assay concentration of 800 μM. The reaction was stopped after 3 hours by the addition of 16 μL 500 mM phosphoric acid and the levels of ^33P incorporation into the peptide substrate were determined by the following method.
A phosphocellulose 96-well plate (Millipore, Cat no. MAPHNOB50) was pre-treated with 100 μL of a 100 mM phosphoric acid prior to the addition of the enzyme reaction mixture (40 μL). The solution was left to soak on to the phosphocellulose membrane for 30 minutes and the plate subsequently washed four times with 200 μL of a 100 mM phosphoric acid. […] Levels of non-enzyme catalyzed background radioactivity were determined by adding 16 μL of the 500 mM phosphoric acid to control wells, containing all assay components (which acts to denature the enzyme), prior to the addition of the [γ-^33P]-ATP solution. Levels of enzyme catalyzed. ^33P incorporation were calculated by subtracting mean background counts from those measured at each inhibitor concentration. […] Ki values were calculated from initial rate data by non-linear regression using the Prism software package (Prism 3.0, Graphpad Software, San Diego, Calif.).

[3] = tested on: Colo205 cells; experiment: Analysis of cell proliferation and viability; format: cell-based; conditions: Homo sapiens, COLO 205, Colo205 cells, read-out: IC50 value
Protocol: Colo205 cells were seeded in 96 well plates and serially diluted compound was added to the wells in duplicate. Control groups included untreated cells, the compound diluent (0.1% DMSO alone) and culture medium without cells.
To measure proliferation, 3 h prior to the end of the experiment 0.5 μCi of 3H thymidine was added to each well. Cells were then harvested and the incorporated radioactivity counted on a Wallac microplate beta-counter. Cell viability was assessed using Promega CellTiter 96AQ to measure MTS conversion. Dose response curves were calculated using either Prism 3.0 (GraphPad) or SoftMax Pro 4.3.1 LS (Molecular Devices) software.

[4] = read-out: Aurora A kinase Ki value

Chain of Aurora-1 (Aurora B) (Q96GD4 whole entry): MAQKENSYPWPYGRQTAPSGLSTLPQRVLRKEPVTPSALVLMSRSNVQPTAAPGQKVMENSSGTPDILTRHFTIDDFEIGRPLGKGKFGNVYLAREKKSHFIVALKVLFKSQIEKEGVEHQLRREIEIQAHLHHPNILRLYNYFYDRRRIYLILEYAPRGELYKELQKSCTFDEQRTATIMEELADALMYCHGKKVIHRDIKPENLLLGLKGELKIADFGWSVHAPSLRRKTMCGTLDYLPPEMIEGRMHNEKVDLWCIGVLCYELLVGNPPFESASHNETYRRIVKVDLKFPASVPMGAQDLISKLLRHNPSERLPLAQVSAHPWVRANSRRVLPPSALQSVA

With `Cc1cc(Nc2cc(N3CCC3)nc(Sc3ccc(C(=O)NC4CC4)cc3)n2)n[nH]1` [Compound 18] the Ki [1] was 5 to 200 nM, the Ki [2] was 10 to 50 nM and < 25 nM and the IC50 ([3]; incubated for 96 hours) was 50 to 1000 nM.
In the case of `Cc1cc(Nc2cc(N3CCC3)nc(Sc3ccc(NC(=O)Cc4ccc(Cl)cc4)cc3)n2)n[nH]1` [Compound 36], the Ki [1, 4] is reported as at most 1 nM, the Ki [2] is reported as 10 to 50 nM and < 25 nM and the IC50 ([3]; incubated for 96 hours) is reported as 50 to 1000 nM.
For `Cc1cc(Nc2cc(N3CCC3)nc(Sc3ccc(NC(=O)c4sc(C)nc4C)cc3)n2)n[nH]1` [Compound 41], the Ki [1, 4] was 5 to 200 nM, the Ki [2] was 50 to 2000 nM and the IC50 ([3]; incubated for 96 hours) was 50 to 1000 nM.
With `Cc1cc(Nc2cc(N3CCC3)nc(Sc3ccc(NC(=O)c4cccc(Cl)c4Cl)cc3)n2)n[nH]1` [Compound 42] the IC50 ([3]; incubated for 96 hours) was 50 to 1000 nM.
Compound `Cc1cc(Nc2cc(N3CCC3)nc(Sc3ccc(NC(=O)c4sccc4Cl)cc3)n2)n[nH]1` [Compound 43] has a Ki [1, 4] of 1 to 5 nM, a Ki [2] of 10 to 50 nM and an IC50 ([3]; incubated for 96 hours) of 50 to 1000 nM.
`Cc1cc(Nc2cc(N3CCC3)nc(Sc3ccc(NC(=O)c4cc(F)ccc4F)cc3)n2)n[nH]1` [Compound 45] showed a Ki [2] of 10 to 50 nM and an IC50 ([3]; incubated for 96 hours) of 50 to 1000 nM.
With `Cc1cc(Nc2cc(N3CCC3)nc(Sc3ccc(-n4ccccc4=O)cc3)n2)[nH]n1` [Compound 47] the Ki [1, 4] was 5 to 200 nM, the Ki [2] was 50 to 2000 nM and the IC50 ([3]; incubated for 96 hours) was over 1000 nM.
For `Cc1cc(Nc2cc(C(=O)N3CCC3)nc(Sc3ccc(NC(=O)c4ccccc4Cl)cc3)n2)n[nH]1` [Compound 62], the Ki [2] was 50 to 2000 nM and the IC50 ([3]; incubated for 96 hours) was over 1000 nM.
Compound `Cc1cc(Nc2cc(N3CCC3)nc(Sc3ccc(NC(=O)c4cccnc4C)cc3)n2)[nH]n1` [Compound 63] has a Ki [1, 4] of 5 to 200 nM, a Ki [2] of 10 to 50 nM and an IC50 ([3]; incubated for 96 hours) of over 1000 nM.
Work on `CCC(=O)Nc1ccc(Sc2nc(Nc3cc(C)n[nH]3)cc(N3CC(N4CCC4)C3)n2)cc1` [Compound 70] yielded a Ki [1, 4] of 1 to 5 nM, a Ki [2] of 50 to 2000 nM and an IC50 ([3]; incubated for 96 hours) of at most 50 nM.
With `CCN(CC)C(=O)Nc1ccc(Sc2nc(Nc3cc(C)[nH]n3)cc(N3CCC3)n2)cc1` [Compound 72] the Ki [1, 4] was 5 to 200 nM, the Ki [2] was 50 to 2000 nM and the IC50 ([3]; incubated for 96 hours) was over 1000 nM.
`CCC(=O)Nc1ccc(Sc2nc(Nc3cc(C)n[nH]3)cc(N3CC(O)(CC(C)(C)C)C3)n2)cc1` [Compound 84] gave an IC50 ([3]; incubated for 96 hours) of at most 50 nM.
Work on `CCC(=O)Nc1ccc(Sc2nc(Nc3cc(C)n[nH]3)cc(N3CC(O)(c4ccccc4)C3)n2)cc1` [Compound 86] yielded a Ki [1, 4] of at most 1 nM, a Ki [2] of at most 10 nM and an IC50 ([3]; incubated for 96 hours) of 50 to 1000 nM.
`CCC(=O)Nc1ccc(Sc2nc(Nc3cc(C)n[nH]3)cc(N3CC(O)(c4ccccc4C)C3)n2)cc1` [Compound 93] gave a Ki [1, 4] of at most 1 nM, a Ki [2] of 50 to 2000 nM and an IC50 ([3]; incubated for 96 hours) of 50 to 1000 nM.
With `CCC(=O)Nc1ccc(Sc2nc(Nc3cc(C)n[nH]3)cc(N3CC(O)(CC)C3)n2)cc1` [Compound 98] the IC50 ([3]; incubated for 96 hours) was 50 to 1000 nM.
For `CCC(=O)Nc1ccc(Sc2nc(Nc3cc(C)n[nH]3)cc(N3CC(O)(C4CCCCC4)C3)n2)cc1` [Compound 101], the Ki [1, 4] was at most 1 nM, the Ki [2] was at most 10 nM and the IC50 ([3]; incubated for 96 hours) was at most 50 nM.
In the case of `COC(=O)c1ccc(Sc2nc(Nc3cc(C4CC4)[nH]n3)cc(N3CC(O)(C4CC4)C3)n2)cc1` [Compound 106], the Ki [1, 4] is reported as at most 1 nM, the Ki [2] is reported as at most 10 nM and the IC50 ([3]; incubated for 96 hours) is reported as 50 to 1000 nM.
Work on `CC(=O)OC1(C2CC2)CN(c2cc(Nc3cc(C)n[nH]3)nc(Sc3ccc(NC(=O)C4CC4)cc3)n2)C1` [Compound 107] yielded a Ki [1, 4] of at most 1 nM, a Ki [2] of 10 to 50 nM and an IC50 ([3]; incubated for 96 hours) of at most 50 nM.
Compound `CCCCOC1(C2CC2)CN(c2cc(Nc3cc(C)n[nH]3)nc(Sc3ccc(NC(=O)C4CC4)cc3)n2)C1` [Compound 111] has a Ki [1, 4] of at most 1 nM, a Ki [2] of at most 10 nM and an IC50 ([3]; incubated for 96 hours) of at most 50 nM.
Work on `COc1cccc(C(=O)Nc2ccc(Sc3nc(Nc4cc(C)n[nH]4)cc(N4CCC4)n3)cc2)c1` [Compound 116] yielded an IC50 ([3]; incubated for 72 hours) of over 200 nM.
